Test results reported in US20130130912A1, “AGROCHEMICAL FORMULATION COMPOSITION” (priority 2010, published 2013).

Assays:
[1] = solubility of pesticide actives in dialkyl carbonate solvents (CIPAC method MT181); assay type: physicochemical; conditions: 20 deg C.; for solubility in Bis-(2-ethylhexyl) carbonate solvent: Bis-(2-ethylhexyl) carbonate solvent (comparative)
Text: All solubility measurements are done according to the CIPAC method MT181.

[2] = phytotoxic properties of dialkyl carbonates
Text: A further advantage of the dialkylcarbonates used, is their compatibility with construction materials used in spraying equipment.

Fc1ccc([C@]2(Cn3cncn3)O[C@H]2c2ccccc2Cl)cc1 (racemic) [Epoxiconazole]
solubility in Bis-(2-ethylhexyl) carbonate solvent [1]: <10 grams/litre | SOLUBILITY OF PESTICIDE ACTIVES IN di-n-butylcarbonate (DNBC) SOLVENT [1]: 45 grams/litre | solubility in di-n-pentyl carbonate solvent [1]: 20-25 grams/litre

CCNc1nc(NC(C)C)nc(SC)n1 [Ametryn]
solubility in Bis-(2-ethylhexyl) carbonate solvent [1]: 80-100 grams/litre | SOLUBILITY OF PESTICIDE ACTIVES IN di-n-butylcarbonate (DNBC) SOLVENT [1]: 350 grams/litre | solubility in di-n-pentyl carbonate solvent [1]: 120 grams/litre | SOLUBILITY OF PESTICIDE ACTIVES IN di-n-propylcarbonate (DNPC) SOLVENT [1]: >250 grams/litre

O=C(Nc1ccc(F)cc1F)c1cccnc1Oc1cccc(C(F)(F)F)c1 [Diflufenican]
solubility in Bis-(2-ethylhexyl) carbonate solvent [1]: <10 grams/litre | SOLUBILITY OF PESTICIDE ACTIVES IN di-n-butylcarbonate (DNBC) SOLVENT [1]: <50 grams/litre | solubility in di-n-pentyl carbonate solvent [1]: 14-20 grams/litre

CCc1cccc(C)c1N(C(=O)CCl)C(C)COC (centres unmarked) [Metolachlor]
solubility in Bis-(2-ethylhexyl) carbonate solvent [1]: >200 grams/litre | SOLUBILITY OF PESTICIDE ACTIVES IN di-n-butylcarbonate (DNBC) SOLVENT [1]: >600 grams/litre | solubility in di-n-pentyl carbonate solvent [1]: >200 grams/litre

CCC(CC)Nc1c([N+](=O)[O-])cc(C)c(C)c1[N+](=O)[O-] [Pendimethalin]
solubility in Bis-(2-ethylhexyl) carbonate solvent [1]: 80-100 grams/litre | SOLUBILITY OF PESTICIDE ACTIVES IN di-n-butylcarbonate (DNBC) SOLVENT [1]: >300 grams/litre | solubility in di-n-pentyl carbonate solvent [1]: >100 grams/litre | SOLUBILITY OF PESTICIDE ACTIVES IN di-n-propylcarbonate (DNPC) SOLVENT [1]: >300 grams/litre

CC(C)(C)C(O)(CCc1ccc(Cl)cc1)Cn1cncn1 (centres unmarked) [Tebuconazole]
solubility in Bis-(2-ethylhexyl) carbonate solvent [1]: <10 grams/litre | SOLUBILITY OF PESTICIDE ACTIVES IN di-n-butylcarbonate (DNBC) SOLVENT [1]: 140 grams/litre | solubility in di-n-pentyl carbonate solvent [1]: 33-40 grams/litre | SOLUBILITY OF PESTICIDE ACTIVES IN di-n-propylcarbonate (DNPC) SOLVENT [1]: >100 grams/litre

CC(C)(C)C(O)C(Oc1ccc(Cl)cc1)n1cncn1 (centres unmarked) [Triadimenol]
solubility in Bis-(2-ethylhexyl) carbonate solvent [1]: <10 grams/litre | SOLUBILITY OF PESTICIDE ACTIVES IN di-n-butylcarbonate (DNBC) SOLVENT [1]: 45 grams/litre | solubility in di-n-pentyl carbonate solvent [1]: 20-25 grams/litre

CCCN(CCC)c1c([N+](=O)[O-])cc(C(F)(F)F)cc1[N+](=O)[O-] [Trifluralin]
solubility in Bis-(2-ethylhexyl) carbonate solvent [1]: 80-100 grams/litre | SOLUBILITY OF PESTICIDE ACTIVES IN di-n-butylcarbonate (DNBC) SOLVENT [1]: >600 grams/litre | solubility in di-n-pentyl carbonate solvent [1]: >250 grams/litre | SOLUBILITY OF PESTICIDE ACTIVES IN di-n-propylcarbonate (DNPC) SOLVENT [1]: >600 grams/litre

CCCCOC(=O)OCCCC [di-n-butyl carbonate, di-n-butylcarbonate]
phytotoxicity [2]: not to be phytotoxic
